In the supplement of paper PMC10307832:

Columns and labels:
Test in all cases: relative viability (nuclei count vs DMSO), 5 days (fraction); higher = more cells survive
Shikonin + Navitoclax = compound: CC(C)=CC[C@@H](O)C1=CC(=O)c2c(O)ccc(O)c2C1=O [Shikonin] + CC1(C)CCC(c2ccc(Cl)cc2)=C(CN2CCN(c3ccc(C(=O)NS(=O)(=O)c4ccc(N[C@H](CCN5CCOCC5)CSc5ccccc5)c(S(=O)(=O)C(F)(F)F)c4)cc3)CC2)C1 [Navitoclax] (partner 0.5 µM)
Procedure, shortened: (§1)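 Five library-drug doses in √10 steps were combined with a fixed anchor-drug dose, or a single drug was given alone, by pin tool to lung cancer cell lines in 1536-well plates the day after seeding. Nuclei were stained and counted after 5 days. Relative viability is the nuclei count in treated wells over that in vehicle wells, taken as the median of duplicate plates.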

Shikonin + Dasatinib = compound: CC(C)=CC[C@@H](O)C1=CC(=O)c2c(O)ccc(O)c2C1=O [Shikonin] + Cc1nc(Nc2ncc(C(=O)Nc3c(C)cccc3Cl)s2)cc(N2CCN(CCO)CC2)n1 [Dasatinib] (partner 0.075 µM)
Procedure, shortened: as §1

[1] = compound: CC(C)N(CCCNC(=O)Nc1ccc(C(C)(C)C)cc1)C[C@H]1O[C@@H](n2ccc3c(N)ncnc32)[C@H](O)[C@@H]1O + Cc1cc(Nc2cc(N3CCN(C)CC3)nc(Sc3ccc(NC(=O)C4CC4)cc3)n2)n[nH]1 [Tozasertib] (partner 0.1 µM)
Procedure, shortened: as §1

[2] = compound: CC(C)N(CCCNC(=O)Nc1ccc(C(C)(C)C)cc1)C[C@H]1O[C@@H](n2ccc3c(N)ncnc32)[C@H](O)[C@@H]1O + Nc1nc2[nH]cc(CCc3ccc(C(=O)N[C@@H](CCC(=O)O)C(=O)O)cc3)c2c(=O)[nH]1 [Pemetrexed] (partner 0.2 µM)
Procedure, shortened: as §1

| Cell Line | relative viability (Shikonin + Navitoclax; first compound 0.01 µM) | relative viability (Shikonin + Navitoclax; first compound 0.1 µM) | relative viability (Shikonin + Navitoclax; first compound 0.3162 µM) | relative viability (Shikonin + Navitoclax; first compound 1 µM) | relative viability (Shikonin + Dasatinib; first compound 0.01 µM) | relative viability (Shikonin + Dasatinib; first compound 0.1 µM) | relative viability (Shikonin + Dasatinib; first compound 0.3162 µM) | relative viability (Shikonin + Dasatinib; first compound 1 µM) | relative viability ([1]; first compound 0.08 µM) | relative viability ([1]; first compound 0.253 µM) | relative viability ([1]; first compound 0.8 µM) | relative viability ([1]; first compound 2.53 µM) | relative viability ([1]; first compound 8 µM) | relative viability ([2]; first compound 0.08 µM) | relative viability ([2]; first compound 0.253 µM) | relative viability ([2]; first compound 0.8 µM) | relative viability ([2]; first compound 2.53 µM) | relative viability ([2]; first compound 8 µM) |
| --- | --- | --- | --- | --- | --- | --- | --- | --- | --- | --- | --- | --- | --- | --- | --- | --- | --- | --- |
| NCI-H1975 | 1.16 | 1.37 | 1.33 | 0.91 | 0.354 | 0.344 | 0.344 | 0.359 | 0.696 | 0.765 | 0.741 | 0.597 | 0.569 | 0.303 | 0.296 | 0.292 | 0.3 | 0.286 |
| NCI-H1993 |  | 0.814 | 0.936 | 1.01 | 0.537 | 0.489 | 0.645 | 0.361 | 0.564 |  |  | 0.624 | 0.591 | 0.564 |  | 0.533 | 0.638 | 0.543 |
| NCI-H2009 | 1.23 | 1.16 | 1.19 | 1.05 | 0.281 | 0.301 | 0.239 | 0.134 | 0.765 | 0.727 | 0.798 | 0.695 | 0.713 | 0.994 | 1.05 | 0.97 | 0.975 | 0.953 |
| NCI-H2023 | 1.03 | 1.06 | 1.03 | 0.97 | 0.674 | 0.646 | 0.626 | 0.611 | 0.437 | 0.38 | 0.345 | 0.375 | 0.338 | 0.246 | 0.246 | 0.232 | 0.215 | 0.213 |
| NCI-H2085 | 1.08 | 1.09 | 1.13 | 0.664 | 0.229 | 0.248 | 0.221 | 0.222 | 0.746 | 0.78 | 0.797 | 0.854 | 0.716 | 0.877 | 0.61 | 0.899 | 1.05 | 0.975 |
| NCI-H2087 | 1.01 | 1.15 | 1.01 | 0.917 | 0.868 | 1.1 | 0.83 | 0.893 | 0.243 | 0.252 | 0.243 | 0.259 | 0.207 | 0.718 | 0.653 | 0.714 | 0.735 | 0.662 |
| NCI-H2126 | 0.84 | 0.86 | 0.879 | 0.864 | 0.599 | 0.595 | 0.656 | 0.685 | 0.844 | 0.834 | 0.812 | 0.843 | 0.786 | 0.657 | 0.619 | 0.696 | 0.665 | 0.691 |
| NCI-H2170 | 0.578 | 0.511 | 0.58 | 0.61 | 0.611 | 0.465 | 0.651 | 0.54 | 0.723 | 0.72 | 0.645 | 0.709 | 0.74 | 0.261 | 0.263 | 0.261 | 0.296 | 0.29 |
| NCI-H2228 | 0.799 | 0.846 | 0.911 | 0.895 | 0.539 | 0.534 | 0.46 | 0.522 | 0.261 | 0.314 | 0.264 | 0.277 | 0.23 | 0.336 | 0.326 | 0.313 | 0.298 | 0.337 |
